Results as given in ChEMBL document CHEMBL5550163, “A novel approach to exploit Small-Molecule glucagon-like Peptide-1 receptor agonists with high potency” (Bioorg Med Chem, 2024).
The source made the active and inactive calls. No cut-off for these calls is given here.

Assays:
[1] = molecular target: T1, Glucagon-like peptide 1 receptor (Homo sapiens, UniProt P43220); test: Agonist activity human GLP-1R stably expressed in HEK293 cells assessed as increase in intracellular cAMP level incubated for 30 mins by multiplate reader analysis; type: functional, cell-based
T1 sequence (P43220 whole entry): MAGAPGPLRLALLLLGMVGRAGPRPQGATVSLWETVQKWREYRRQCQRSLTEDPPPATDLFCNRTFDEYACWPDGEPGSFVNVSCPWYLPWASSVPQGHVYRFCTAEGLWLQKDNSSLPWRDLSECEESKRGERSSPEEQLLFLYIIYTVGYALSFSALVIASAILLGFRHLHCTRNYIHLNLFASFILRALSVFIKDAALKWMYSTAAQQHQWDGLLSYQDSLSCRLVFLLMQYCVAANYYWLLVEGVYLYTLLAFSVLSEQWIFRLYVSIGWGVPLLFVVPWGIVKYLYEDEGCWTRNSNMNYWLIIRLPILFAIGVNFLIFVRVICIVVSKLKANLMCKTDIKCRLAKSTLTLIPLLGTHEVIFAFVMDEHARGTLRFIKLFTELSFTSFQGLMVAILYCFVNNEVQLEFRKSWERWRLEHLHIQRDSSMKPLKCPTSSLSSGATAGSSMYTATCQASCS

Mus musculus [2] = test: Antidiabetic activity in hGLP1R-knock in mouse model assessed as reduction in blood glucose level at 3 mg/kg, ip pretreated with compound for 15 mins followed glucose addition and measured after 30 to 120 mins by OGTT analysis; type: functional, organism-based; conditions: time 45-135 min
[3] = molecular target: T1, Glucagon-like peptide 1 receptor; test: Agonist activity at GLP-1R (unknown origin) transfected in HEK293 cells assessed as beta-arrestin2 recruitment incubated for 5 mins by Envision multiplate reader analysis; type: functional, cell-based
[4] = molecular target: T1, Glucagon-like peptide 1 receptor; test: Agonist activity at GLP-1R (unknown origin) transfected in HEK293 cells assessed as beta-arrestin1 recruitment incubated for 5 mins by Envision multiplate reader analysis; type: functional, cell-based
[5] = molecular target: T2, Gastric inhibitory polypeptide receptor (Homo sapiens) (UniProt P48546); test: Agonist activity human GIPR stably expressed in HEK293 cells assessed as […] in intracellular cAMP level up to 100 uM incubated for 30 mins by multiplate reader analysis; type: functional, cell-based
T2 sequence (whole entry): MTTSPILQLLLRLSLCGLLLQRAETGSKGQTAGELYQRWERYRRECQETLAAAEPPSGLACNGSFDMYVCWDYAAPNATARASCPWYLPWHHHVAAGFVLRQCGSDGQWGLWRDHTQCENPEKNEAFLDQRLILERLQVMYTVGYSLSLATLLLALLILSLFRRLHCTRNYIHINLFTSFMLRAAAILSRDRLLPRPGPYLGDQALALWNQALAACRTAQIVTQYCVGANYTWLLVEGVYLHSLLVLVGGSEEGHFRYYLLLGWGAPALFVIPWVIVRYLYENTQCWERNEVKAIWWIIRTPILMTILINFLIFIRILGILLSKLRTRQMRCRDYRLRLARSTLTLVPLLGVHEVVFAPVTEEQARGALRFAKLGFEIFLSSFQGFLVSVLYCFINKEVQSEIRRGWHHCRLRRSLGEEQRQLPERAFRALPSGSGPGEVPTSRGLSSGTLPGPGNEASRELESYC

Pancreatic islet = test: Induction of insulin secretion in mouse Pancreatic islet cells expressing hGLP1R at 10 nM measured for 2 hrs by HTRF analysis; type: functional, cell-based
[6] = molecular target: Glucagon receptor (Homo sapiens) (UniProt P47871); test: Agonist activity human GCGR stably expressed in HEK293 cells assessed as […] in intracellular cAMP level up to 100 uM incubated for 30 mins by multiplate reader analysis; type: functional, cell-based
Sequence of Glucagon receptor (Homo sapiens) (P47871 whole entry): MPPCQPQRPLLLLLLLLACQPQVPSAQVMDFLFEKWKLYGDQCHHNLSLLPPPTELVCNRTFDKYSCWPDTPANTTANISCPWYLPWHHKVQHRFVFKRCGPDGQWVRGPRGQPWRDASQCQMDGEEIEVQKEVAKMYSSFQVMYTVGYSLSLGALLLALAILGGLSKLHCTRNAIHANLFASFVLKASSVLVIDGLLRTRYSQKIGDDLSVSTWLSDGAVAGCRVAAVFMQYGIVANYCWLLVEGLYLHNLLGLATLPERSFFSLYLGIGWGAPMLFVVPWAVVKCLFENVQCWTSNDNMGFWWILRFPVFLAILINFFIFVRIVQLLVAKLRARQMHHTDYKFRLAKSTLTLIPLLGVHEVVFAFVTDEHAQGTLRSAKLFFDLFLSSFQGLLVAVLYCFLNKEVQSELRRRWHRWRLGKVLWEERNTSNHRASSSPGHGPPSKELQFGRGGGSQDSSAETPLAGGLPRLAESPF

Mus musculus [7] = test: Antidiabetic activity in hGLP1R-knock in mouse model assessed as reduction in blood glucose level at 3 mg/kg, ip pretreated with compound for 15 mins followed glucose addition and measured after 120 mins by OGTT analysis; type: functional, organism-based; conditions: time 135.0 min
Mus musculus [8] = test: Antidiabetic activity in hGLP1R-knock in mouse model assessed as reduction in blood glucose AUC (0 to 120 mins) at 3 mg/kg, ip pretreated with compound for 15 mins followed glucose addition and measured after 120 mins by OGTT analysis; type: functional; design: scale not given: the % may be the effect or the level left; conditions: time 135 min, 2.25 h
[9] = molecular target: T3, Glucagon-like peptide 2 receptor (Homo sapiens) (UniProt O95838); test: Agonist activity human GLP-2R stably expressed in HEK293 cells assessed as […] in intracellular cAMP level up to 100 uM incubated for 30 mins by multiplate reader analysis; type: functional, cell-based
T3 sequence (whole entry): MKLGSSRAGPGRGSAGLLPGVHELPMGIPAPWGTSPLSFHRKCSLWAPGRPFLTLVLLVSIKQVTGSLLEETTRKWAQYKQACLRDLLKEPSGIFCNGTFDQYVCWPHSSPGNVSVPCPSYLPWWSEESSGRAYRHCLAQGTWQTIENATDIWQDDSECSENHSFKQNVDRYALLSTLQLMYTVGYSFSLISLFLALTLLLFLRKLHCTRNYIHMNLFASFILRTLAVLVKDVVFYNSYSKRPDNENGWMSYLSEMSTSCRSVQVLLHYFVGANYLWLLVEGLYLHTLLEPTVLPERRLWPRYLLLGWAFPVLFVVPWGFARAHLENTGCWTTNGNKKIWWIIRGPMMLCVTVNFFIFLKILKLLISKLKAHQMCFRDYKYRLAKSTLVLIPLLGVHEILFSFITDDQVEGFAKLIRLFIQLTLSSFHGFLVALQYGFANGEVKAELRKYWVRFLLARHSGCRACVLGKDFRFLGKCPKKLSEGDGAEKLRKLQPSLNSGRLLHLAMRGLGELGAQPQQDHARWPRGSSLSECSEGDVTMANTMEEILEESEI

SMILES: CC(=O)CSc1nnc(-c2ccc3c(c2)nc(CN2CCC(c4cccc(OCc5ccc(Cl)cc5F)n4)CC2)n3C[C@@H]2CCO2)[nH]1
- EC50 [1]: 0.66 nM

SMILES: Fc1cc(Cl)ccc1COc1cccc(C2CCN(Cc3nc4cc(-c5nnc(C(F)(F)F)[nH]5)ccc4n3C[C@@H]3CCO3)CC2)n1
- EC50 [1]: 0.46 nM

SMILES: Fc1cc(Cl)ccc1COc1cccc(C2CCN(Cc3nc4cc(-c5nnc(SCC6CC6)[nH]5)ccc4n3C[C@@H]3CCO3)CC2)n1
- EC50 [1]: 50 nM

SMILES: Fc1cc(Cl)ccc1COc1cccc(C2CCN(Cc3nc4cc(-c5nnc(SCc6ncc[nH]6)[nH]5)ccc4n3C[C@@H]3CCO3)CC2)n1
- EC50 [1]: 2.5 nM

SMILES: N=C(CSc1nnc(-c2ccc3c(c2)nc(CN2CCC(c4cccc(OCc5ccc(Cl)cc5F)n4)CC2)n3C[C@@H]2CCO2)[nH]1)NO
- EC50 [1]: 0.52 nM

SMILES: NCCSc1nnc(-c2ccc3c(c2)nc(CN2CCC(c4cccc(OCc5ccc(Cl)cc5F)n4)CC2)n3C[C@@H]2CCO2)[nH]1
- EC50 [1]: 0.42 nM

SMILES: NC(=O)CCCCSc1nnc(-c2ccc3c(c2)nc(CN2CCC(c4cccc(OCc5ccc(Cl)cc5F)n4)CC2)n3C[C@@H]2CCO2)[nH]1
- EC50 [1]: 0.62 nM

SMILES: N#CCSc1nnc(-c2ccc3c(c2)nc(CN2CCC(c4cccc(OCc5ccc(Cl)cc5F)n4)CC2)n3C[C@@H]2CCO2)[nH]1
- EC50 [1]: 0.67 nM

SMILES: CC(C)Sc1nnc(-c2ccc3c(c2)nc(CN2CCC(c4cccc(OCc5ccc(Cl)cc5F)n4)CC2)n3C[C@@H]2CCO2)[nH]1
- EC50 [1]: 5.2 nM

SMILES: CC(C)CSc1nnc(-c2ccc3c(c2)nc(CN2CCC(c4cccc(OCc5ccc(Cl)cc5F)n4)CC2)n3C[C@@H]2CCO2)[nH]1
- EC50 [1]: 22 nM

SMILES: OCCSc1nnc(-c2ccc3c(c2)nc(CN2CCC(c4cccc(OCc5ccc(Cl)cc5F)n4)CC2)n3C[C@@H]2CCO2)[nH]1
- Activity (Mus musculus [2]): Active
- EC50 [3]: 581 nM
- EC50 [4]: 936 nM
- Activity [5]: inactive
- Activity (Pancreatic islet): Active
- EC50 [1]: 0.065 nM
- Activity [6]: inactive
- Activity (Mus musculus [7]): Active
- Activity (Mus musculus [8]): 50%
- Activity [9]: inactive

SMILES: CCSc1nnc(-c2ccc3c(c2)nc(CN2CCC(c4cccc(OCc5ccc(Cl)cc5F)n4)CC2)n3C[C@@H]2CCO2)[nH]1
- EC50 [1]: 1.1 nM

SMILES: OCCCCSc1nnc(-c2ccc3c(c2)nc(CN2CCC(c4cccc(OCc5ccc(Cl)cc5F)n4)CC2)n3C[C@@H]2CCO2)[nH]1
- EC50 [1]: 4 nM

SMILES: COCCSc1nnc(-c2ccc3c(c2)nc(CN2CCC(c4cccc(OCc5ccc(Cl)cc5F)n4)CC2)n3C[C@@H]2CCO2)[nH]1
- EC50 [1]: 3.4 nM

SMILES: CSc1nnc(-c2ccc3c(c2)nc(CN2CCC(c4cccc(OCc5ccc(Cl)cc5F)n4)CC2)n3C[C@@H]2CCO2)n1C
- EC50 [1]: 8.5 nM

SMILES: NC(=O)CCCSc1nnc(-c2ccc3c(c2)nc(CN2CCC(c4cccc(OCc5ccc(Cl)cc5F)n4)CC2)n3C[C@@H]2CCO2)[nH]1
- EC50 [3]: 322 nM
- EC50 [4]: 566 nM
- EC50 [1]: 0.1 nM

SMILES: NC(=O)CCSc1nnc(-c2ccc3c(c2)nc(CN2CCC(c4cccc(OCc5ccc(Cl)cc5F)n4)CC2)n3C[C@@H]2CCO2)[nH]1
- EC50 [1]: 0.59 nM

SMILES: CSc1nnc(-c2ccc3c(c2)nc(CN2CCC(c4cccc(OCc5ccc(Cl)cc5F)n4)CC2)n3C[C@@H]2CCO2)[nH]1
- EC50 [1]: 0.67 nM

SMILES: CN(C)c1nnc(-c2ccc3c(c2)nc(CN2CCC(c4cccc(OCc5ccc(Cl)cc5F)n4)CC2)n3C[C@@H]2CCO2)[nH]1
- EC50 [1]: 6.8 nM

SMILES: OCCCSc1nnc(-c2ccc3c(c2)nc(CN2CCC(c4cccc(OCc5ccc(Cl)cc5F)n4)CC2)n3C[C@@H]2CCO2)[nH]1
- EC50 [1]: 0.48 nM

SMILES: CCc1nnc(-c2ccc3c(c2)nc(CN2CCC(c4cccc(OCc5ccc(Cl)cc5F)n4)CC2)n3C[C@@H]2CCO2)[nH]1
- EC50 [1]: 0.75 nM

SMILES: NC(=O)CSc1nnc(-c2ccc3c(c2)nc(CN2CCC(c4cccc(OCc5ccc(Cl)cc5F)n4)CC2)n3C[C@@H]2CCO2)[nH]1
- EC50 [1]: 0.35 nM

SMILES: NC(=O)NCCSc1nnc(-c2ccc3c(c2)nc(CN2CCC(c4cccc(OCc5ccc(Cl)cc5F)n4)CC2)n3C[C@@H]2CCO2)[nH]1
- EC50 [3]: 349 nM
- EC50 [4]: 364 nM
- EC50 [1]: 0.11 nM

SMILES: O=C1NCC(CSc2nnc(-c3ccc4c(c3)nc(CN3CCC(c5cccc(OCc6ccc(Cl)cc6F)n5)CC3)n4C[C@@H]3CCO3)[nH]2)O1 (stereo partly drawn)
- EC50 [1]: 0.38 nM

SMILES: COc1nnc(-c2ccc3c(c2)nc(CN2CCC(c4cccc(OCc5ccc(Cl)cc5F)n4)CC2)n3C[C@@H]2CCO2)[nH]1
- EC50 [1]: 0.88 nM

SMILES: N#Cc1ccc(COc2cccc(C3CCN(Cc4nc5ccc(C(=O)O)cc5n4C[C@@H]4CCO4)CC3)n2)c(F)c1
- Activity (Mus musculus [2]): Active
- Activity (Pancreatic islet): Active
- Activity (Mus musculus [7]): Active

SMILES: O=C(O)CSc1nnc(-c2ccc3c(c2)nc(CN2CCC(c4cccc(OCc5ccc(Cl)cc5F)n4)CC2)n3C[C@@H]2CCO2)[nH]1
- EC50 [1]: 1 nM

SMILES: N=C(N)CSc1nnc(-c2ccc3c(c2)nc(CN2CCC(c4cccc(OCc5ccc(Cl)cc5F)n4)CC2)n3C[C@@H]2CCO2)[nH]1
- EC50 [1]: 2.8 nM
